Results from patent US8785728B2, “AAD-12 event 1606 and related transgenic soybean lines” (priority 2010, dated 2014).

Columns and labels:
[1] = tested on: soybean event pDAB4472-1606; format: in vivo, Glycine max; details: 2,4-D dimethylamine salt 2240 g ae/ha applied at V3 and R2; adjusted mean
Description: The agronomic characteristics of soybean event pDAB4472-1606 were compared to an isogenic non-transformed soybean line across diverse geographical locations during the 2009 growing season. Data were collected and analyzed for the following agronomic characteristics: • 1.) Stand count: The number of plants in a representative one meter section of each row was counted. Taking data at the VC-V2 growth stage; • 2.) Emergence: Calculated by dividing Stand count (above) by number of seeds planted in a one meter section; • 3.) Seedling Vigor at V1-V3: Vigor is an overall estimate of the health of the plant. […] Recorded in the number of days from planting date; • 8.) Stand count at R2: The number of plants in a representative one meter section of row were counted. Note taken at the R2 growth stage; • 9.) Overall visual crop injury, chlorosis and necrosis at 1 day after R2 chemical application; • 10.) Overall visual crop injury, chlorosis and necrosis at 7 days after R2 chemical application; • 11.) Overall visual crop injury, chlorosis and necrosis at 14 days after R2 chemical application. • 12.) Disease incidence (if any) at R6 growth stage: Recorded the percentage of plants affected by the disease. 0-100% scale; • 13.) Insect damage (if any) at R6 growth stage: Recorded the percentage of plant tissue in the plot damaged by insects. 0-100% scale; • 14.) Plant height at senescence: Recorded the average height of the plants in each plot. Measured plants from the soil surface to the tip after leaves had fallen. Recorded measurement in centimeters; • 15.) Days to maturity. Recorded when 95% of the pods in a plot had reached their dry down color and were at ˜15% moisture or less. Recorded in days from planting; • 16.) Lodging: Recorded lodging at harvest time. […] (All plants in a plot standing straight=1 and all plants in the plot flat=5); • 17.) Shattering: Recorded shattering at harvest time. Recorded as an estimate of number of pods shattered. […] Recorded seed weight and moisture. […]

[2] = tested on: soybean event pDAB4472-1606; assay: Field expression level study with 2X spray rate of 2,4-D; format: in vivo, Glycine max; details: 2X spray rate (2,240 gm ae/ha of 2,4-D); at any point of the study
Method: Field expression level studies at various plant stages were performed on soybean event pDAB4472-1606 at pre V3, post V3, pre R2, and post R2. Expression values were similar for all the sprayed treatments as well as for the plots sprayed and unsprayed with 2,4-D herbicide. […] Average expression across all lineages in pre V3 plant stage was 200 ug/cm^2. After spraying 2,4-D the expression remained stable averaging […] across lineages. By the time the soybeans reached pre R2 the average expression had dropped slightly to an average of 250 ug/cm^2. After spraying 2,4-D the expression post R2 had remained at the previous average of 250 ug/cm^2.

O=C(O)COc1ccc(Cl)cc1Cl [2,4-D, 2,4-dichlorophenoxyacetic acid]
Overall crop injury 1 day after V3 spray [1]: 0.3% | Overall crop injury 7 days after V3 spray [1]: 2.1% | Overall crop injury 14 days after V3 spray [1]: 3.3% | Injury on the plants [2]: no significant injury was observed
